This note sets out measurements from ChEMBL document CHEMBL1122749, “Synthesis and biological activity of 5-fluoro-2',3'-dideoxy-3'-fluorouridine and its 5'-phosphate” (J Med Chem, 1984).

Data set [1] has as its system L1210. In words: In vitro concentration required for 50% inhibition (IC50) of growth of L1210 mouse leukemia cells in culture. Format: functional, cell-based.
The target in data set [2] is T1, Thymidine phosphorylase (Mus musculus, UniProt Q99N42).
T1 sequence (Q99N42 whole entry): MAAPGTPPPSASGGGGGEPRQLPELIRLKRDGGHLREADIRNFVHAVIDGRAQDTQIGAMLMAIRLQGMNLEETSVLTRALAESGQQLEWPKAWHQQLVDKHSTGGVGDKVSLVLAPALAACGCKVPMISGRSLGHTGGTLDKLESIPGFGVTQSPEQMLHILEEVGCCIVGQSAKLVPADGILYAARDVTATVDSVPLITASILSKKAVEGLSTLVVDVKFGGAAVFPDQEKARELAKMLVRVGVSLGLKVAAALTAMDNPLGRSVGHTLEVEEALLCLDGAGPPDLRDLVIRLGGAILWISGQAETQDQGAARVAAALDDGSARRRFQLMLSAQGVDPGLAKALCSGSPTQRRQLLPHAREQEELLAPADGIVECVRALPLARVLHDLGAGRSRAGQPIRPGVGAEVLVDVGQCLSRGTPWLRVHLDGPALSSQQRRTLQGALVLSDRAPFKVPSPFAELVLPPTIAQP
In words: In vitro non-competitive inhibition of cleavage of Thymidine (dThd) phosphorylase isolated from Lewis lung carcinoma. In kind it is tissue-based.

Data set [3] in a line: Apparent rate constant Kon for inactivation of dTMP synthase.
Data set [4] deals with Thymidylate synthase (Lactobacillus casei). As to the kind of experiment: In vitro competitive inhibition of dTMP synthetase with respect to substrate dUMP.
Data set [5] in a line: Apparent rate constant Koff for inactivation of dTMP synthase.
Data set [6] has as its system L1210. In words: In vitro concentration required for 50% inhibition (IC50) of growth of L1210 mouse leukemia cells in culture. Format: functional, cell-based.

Each structure is given as a SMILES string.

For orientation: IC50 means the concentration that inhibits the measured activity by half. For orientation: Ki means a measure of affinity in units of concentration, obtained from inhibition or displacement. High values mean lower affinity, low ones higher affinity. Compound `O=c1[nH]c(=O)n([C@H]2C[C@H](F)[C@@H](CO)O2)cc1F` had an IC50 in data set [1] of 3.4 µM. Further, in data set [2], the Ki turned out to be 1700 µM.

For `O=c1[nH]c(=O)n(C2CC(F)C(COP(=O)(O)O)O2)cc1F` (stereo unspecified), the Kon in data set [3] worked out at 0.029 s⁻¹. This compound also registered a Ki in data set [4] of 130 µM. Also, in data set [5], the K off worked out at 0.000233 s⁻¹.

As to `O=c1[nH]c(=O)n([C@H]2C[C@H](O)[C@@H](CO)O2)cc1F` [FLOXURIDINE], the IC50 in data set [6] amounted to 0.0005 µM. This lies in the sub-nanomolar range.
